The supplement of paper PMC10307832

Columns and labels:
Test in all cases: relative viability (nuclei count vs DMSO), 5 days (fraction); higher = more cells survive
Elesclomol + Pictilisib = compound: CN(NC(=O)CC(=O)NN(C)C(=S)c1ccccc1)C(=S)c1ccccc1 [Elesclomol] + CS(=O)(=O)N1CCN(Cc2cc3nc(-c4cccc5[nH]ncc45)nc(N4CCOCC4)c3s2)CC1 [Pictilisib] (partner 1 µM)
Method in brief: (§1)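 Lung cancer cell lines were seeded in 1536-well plates and dosed by pin tool the next day, with either a single drug or a fixed anchor-drug dose combined with five library-drug doses (not always all listed) spaced in √10 steps. Five days later, one step fixed the cells and stained their nuclei (final 0.05% Triton X-100, 1% formaldehyde, 1 ug/ml Hoechst), and nuclei were counted on 4× images. Relative viability is the nuclei count in treated wells divided by the count in vehicle wells, and each value is the median of duplicate plates.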

Elesclomol + Luminespib = compound: CN(NC(=O)CC(=O)NN(C)C(=S)c1ccccc1)C(=S)c1ccccc1 [Elesclomol] + CCNC(=O)c1noc(-c2cc(C(C)C)c(O)cc2O)c1-c1ccc(CN2CCOCC2)cc1 [Luminespib] (partner 0.01 µM)
Method in brief: as §1

Elesclomol + Linsitinib = compound: CN(NC(=O)CC(=O)NN(C)C(=S)c1ccccc1)C(=S)c1ccccc1 [Elesclomol] + C[C@]1(O)C[C@@H](c2nc(-c3ccc4ccc(-c5ccccc5)nc4c3)c3c(N)nccn32)C1 [Linsitinib] (partner 1 µM)
Method in brief: as §1

Elesclomol + Phenformin = compound: CN(NC(=O)CC(=O)NN(C)C(=S)c1ccccc1)C(=S)c1ccccc1 [Elesclomol] + N=C(N)NC(=N)NCCc1ccccc1 [Phenformin] (partner 250 µM)
Method in brief: as §1

Elesclomol + Crizotinib = compound: CN(NC(=O)CC(=O)NN(C)C(=S)c1ccccc1)C(=S)c1ccccc1 [Elesclomol] + C[C@@H](Oc1cc(-c2cnn(C3CCNCC3)c2)cnc1N)c1c(Cl)ccc(F)c1Cl [Crizotinib] (partner 1 µM)
Method in brief: as §1

Cell Line | relative viability (Elesclomol + Pictilisib; first compound 0.003162 µM) | relative viability (Elesclomol + Pictilisib; first compound 0.01 µM) | relative viability (Elesclomol + Pictilisib; first compound 0.03162 µM) | relative viability (Elesclomol + Pictilisib; first compound 0.1 µM) | relative viability (Elesclomol + Luminespib; first compound 0.003162 µM) | relative viability (Elesclomol + Luminespib; first compound 0.01 µM) | relative viability (Elesclomol + Luminespib; first compound 0.03162 µM) | relative viability (Elesclomol + Luminespib; first compound 0.1 µM) | relative viability (Elesclomol + Linsitinib; first compound 0.003162 µM) | relative viability (Elesclomol + Linsitinib; first compound 0.01 µM) | relative viability (Elesclomol + Linsitinib; first compound 0.03162 µM) | relative viability (Elesclomol + Linsitinib; first compound 0.1 µM) | relative viability (Elesclomol + Phenformin; first compound 0.003162 µM) | relative viability (Elesclomol + Phenformin; first compound 0.01 µM) | relative viability (Elesclomol + Phenformin; first compound 0.03162 µM) | relative viability (Elesclomol + Phenformin; first compound 0.1 µM) | relative viability (Elesclomol + Crizotinib; first compound 0.003162 µM) | relative viability (Elesclomol + Crizotinib; first compound 0.01 µM) | relative viability (Elesclomol + Crizotinib; first compound 0.03162 µM) | relative viability (Elesclomol + Crizotinib; first compound 0.1 µM)
NCI-H838 | 0.465 | 0.413 | 0.439 | 0.357 | 0.33 | 0.235 | 0.166 | 0.109 | 1.02 | 0.907 | 0.879 | 0.688 | 0.536 | 0.508 | 0.455 | 0.152 | 0.833 | 0.745 | 0.691 | 0.414
NCI-H3122 | 0.567 | 0.594 | 0.594 | 0.304 | 0.083 | 0.113 | 0.0663 | 0.0832 | 1.04 | 1.07 | 0.956 | 0.228 | 0.325 | 0.274 | 0.261 | 0.219 | 0.253 | 0.329 | 0.296 | 0.217
SK-MES-1 | 0.402 | 0.312 | 0.238 | 0.199 | 0.922 | 0.713 | 0.274 | 0.295 | 1.04 | 0.814 | 0.992 | 0.62 | 0.644 | 0.456 | 0.506 | 0.421 | 1.06 | 0.887 | 0.964 | 0.625
NCI-H1944 | 0.381 | 0.29 | 0.318 | 0.328 | 0.73 | 0.682 | 0.654 | 0.371 | 1.14 | 1.18 | 1.12 | 1.13 | 0.216 | 0.169 | 0.212 | 0.201 | 1.07 | 1.06 | 1 | 1.01
LK-2 | 0.418 | 0.177 | 0.149 | 0.117 | 0.197 | 0.172 | 0.178 | 0.136 | 0.428 | 0.21 | 0.0808 | 0.0624 | 0.438 | 0.389 | 0.353 | 0.141 | 0.224 | 0.213 | 0.124 | 0.106
PC-3 [JPC-3] | 0.738 | 0.604 | 0.878 | 0.581 | 0.706 | 0.612 | 0.701 | 0.447 | 0.958 | 0.907 | 0.984 | 0.791 | 0.474 | 0.474 | 0.496 | 0.401 | 0.972 | 0.959 | 1.02 | 0.743
COR-L23 | 0.662 | 0.308 | 0.224 | 0.24 | 0.598 | 0.316 | 0.206 | 0.0873 | 0.985 | 0.511 | 0.32 | 0.244 | 0.367 | 0.187 | 0.163 | 0.053 | 0.633 | 0.409 | 0.341 | 0.124
NCI-H1355 | 0.549 | 0.191 | 0.257 | 0.178 | 0.713 | 0.623 | 0.413 | 0.171 | 0.803 | 0.663 | 0.486 | 0.17 | 0.464 | 0.409 | 0.391 | 0.312 | 1.02 | 1.02 | 0.701 | 0.203
NCI-H460 | 0.361 | 0.291 | 0.309 | 0.259 | 0.0311 | 0.0324 | 0.0198 | 0.0215 | 0.719 | 0.123 | 0.0104 | 0.01 | 0.439 | 0.0498 | 0.0181 | 0.0123 | 0.624 | 0.0306 | 0.0112 | 0.0109
NCI-H1993 | 0.798 | 0.909 | 0.807 | 0.603 | 0.764 | 0.595 | 0.466 | 0.429 | 0.72 | 0.823 | 0.683 | 0.591 | 0.512 | 0.538 | 0.517 | 0.53 | 0.812 | 0.836 | 0.603 | 0.577
ChaGo-K-1 | 0.481 | 0.239 | 0.194 | 0.242 | 0.524 | 0.541 | 0.184 | 0.128 | – | – | – | – | 0.503 | 0.393 | 0.275 | 0.174 | 0.596 | 0.376 | 0.288 | 0.258
HCC-15 | 0.719 | 0.522 | 0.523 | 0.289 | 0.27 | 0.194 | 0.11 | 0.0457 | 0.882 | 0.735 | 0.61 | 0.38 | 0.452 | 0.438 | 0.335 | 0.231 | 0.753 | 0.667 | 0.556 | 0.259
NCI-H23 | 0.536 | – | 0.366 | 0.147 | 0.171 | 0.17 | 0.154 | 0.164 | 0.572 | – | 0.504 | 0.143 | 0.822 | 0.671 | 0.77 | 0.506 | 0.56 | – | 0.49 | 0.116
